Consider 24 compounds from patent US3932664A, “Substituted phenoxyalkyl quaternary ammonium compounds as antiarrhythemic agents” (priority 1974, dated 1976).

Where two headings read alike, the source gives them in different places.

Data set [1] concerns ouabain-induced ventricular tachycardia in dogs. Briefly: conversion of ouabain-induced ventricular tachycardia to normal sinus rhythm in anesthetized dogs. It counts as in vivo, dog. The note with it: for minimal effective dose: Canis lupus familiaris, iv, read-out: Conversion Dose. The text has this:
Ventricular tachycardia is produced in dogs in a method similar to the method of Lucchesi and Hardman (J. Pharmacol. Exptl. Therap., 132, 372, 1961) by the administration of ouabain. In such operations, a dog is anesthetized by the intravenous administration of pentobarbital sodium at a dosage rate of 30 milligrams per kilogram. A femoral artery is cannulated with polyethylene tubing for measurements of blood pressure. A femoral vein is similarly cannulated for administration of ouabain and administration of the test compound. Hypodermic needle electrodes are employed for recording electrocardiograms. In such operations, ouabain is administered intravenously by infusion at a constant rate via the cannulated femoral vein. The infusion rate is 35 micrograms of ouabain per kilogram of animal body weight per hour. Within 1 to 1.5 hours following the start of the infusion, a ventricular tachycardia is seen to develop.
After ventricular tachycardia is observed, a test compound is administered intravenously by administration of varying amounts of a composition comprising 50 milligrams of the test compound as a sterile solution in 10 milliliters of water containing 0.9 percent sodium chloride. Each dose is administered slowly over a period of 15 to 30 seconds. The compound is administered at an initial dosage rate of 0.25 milligram of test compound per kilogram of animal body weight. Blood pressure and electrocardiogram are observed for 5 minutes after administration. When a complete conversion from the arrhythmic condition to normal sinus rhythm is not observed within the 5 minute period, a second dose of 0.50 milligram of the test compound per kilogram is administered by a similar procedure and blood pressure and heartbeat are similarly observed for 5 minutes. When complete conversion of the ventricular tachycardia to normal sinus rhythm is not observed, the dosage is increased two-fold every five minutes until complete conversion is obtained. The animal is then observed and the duration of the period of normal cardiac rhythm produced by administration of the test compound is recorded as the duration of antiarrhythmic activity. The termination of the period of normal activity is marked by the reappearance of ventricular tachycardia or fibrillation as indicated by the electrocardiogram observations. The antiarrhythmic dosage of test compound sufficient to bring about a complete conversion of the cuabain-induced tachycardia, and the duration of the period of normal cardiac activity are set out below.
The procedure of Example 26 is repeated, employing the compound of Example 1, [ 2-(4-amino-2,6-dibromophenoxy)-ethyl]-dimethyl(2-methylallyl)ammoniumchloride, as a test compound. In these operations two groups of three dogs each are administered the test compound intravenously at anti-arrhythmic dosage rates of 1 and 2 milligrams per kilogram after ectopic ventricular rhythms have been established by continuous infusion of cuabain.

Data set [2] is described as follows: blood and heart tissue levels in mice after intravenous and oral administration. It counts as in vivo. The note with it: mouse; for concentration at 0.5 h: oral 6 mg/kg, thirty minutes after administration. The method, then: [2-(4-amino-2,6-dibromophenoxy)ethyl]dimethyl-(allyl)ammonium bromide is administered to mice intravenously and orally. The animals are thereafter sacrificed and blood and heart tissue analyses are carried out to ascertain the concentration of test compound present. In such operations mice intravenously administered the test compound at a rate of 6 milligrams per kilogram are found to have blood levels of 27 micrograms of test compound per milliliter 10 seconds after injection, 2.1 micrograms per milliliter 3 minutes after injection. Analysis of heart tissue indicates a concentration of 5.5 micrograms of test compound per gram of tissue 10 minutes after injection. Similar analyses are carried out with animals administered 6 milligrams of test compound per kilogram orally. Thirty minutes after oral administration, blood and heart levels of 1.1 and 5.1 micrograms, respectively, of test compound per milliliter of blood or gram of heart tissue, respectively, are found.

The mark [3] stands for this setting: dog, intravenous, dose giving complete conversion of ouabain-induced tachycardia to normal sinus rhythm.
Setting [4] is: dog, intravenous, at conversion dose 1 mg/kg.
Setting [5] is: dog, intravenous, at conversion dose 2 mg/kg.
[6] abbreviates: dog, intravenous, at conversion dose 0.5 mg/kg.

`CCOC(=O)C[N+](C)(C)CCOc1c(Br)cc(N)cc1Br` [Example 2, [2-(4-amino-2,6-dibromophenoxy)ethyl]dimethyl(ethylcarboxymethyl) ammonium bromide]: in data set [1] (setting [3]), the minimal effective dose amounted to 1 mg/kg. Moreover, the entries for the “Duration (period of normal cardiac rhythm)” value (from here on “Duration”) in data set [1] (setting [4]) and in data set [1] (setting [5]) were 2.6 min and 3.5 min, respectively.
In the case of `C[N+](C)(CCOc1c(Br)cc(N)cc1Br)Cc1ccccc1Cl.[Cl-]` [Example 3, [2-(4-amino-2,6-dibromophenoxy)-ethyl]dimethyl(2-chlorobenzyl)ammonium chloride], the minimal effective dose in data set [1] (setting [3]) stood at 1 mg/kg. Also, the “Duration” value in data set [1] (setting [4]) came to 12.5 min.
As for `C#CC[N+](C)(C)CCOc1c(Br)cc(N)cc1Br.[Br-]` [Example 4, [2-(4-amino-2,6-dibromo-phenoxy)ethyl]dimethyl(2-propynyl)ammonium bromide], the minimal effective dose in data set [1] (setting [3]) turned out to be 0.5 mg/kg. Moreover, in data set [1] (setting [6]), the “Duration” value was 24 min.
Take `CC(=O)C[N+](C)(C)CCOc1c(Br)cc(N)cc1Br.[Cl-]` [Example 5, [2-(4-amino-2,6-dibromophenoxy)ethyl]dimethyl(acetonyl)ammonium chloride]: the minimal effective dose in data set [1] (setting [3]) is 1 mg/kg. Also, the “Duration” value in data set [1] (setting [4]) was determined as 11 min.
With `C=CC[N+](C)(C)CCOc1c(Br)cc(N)cc1Br.[Br-]` [Example 6, [2-(4-amino-2,6-dibromophenoxy)ethyl]dimethyl(allyl)ammonium bromide], the minimal effective dose in data set [1] (setting [3]) was 1 mg/kg. Also, the “Duration” value in data set [1] (setting [4]) came to 6 min. In addition, the concentration at 10 s in data set [2] (blood, intravenous 6 mg/kg, 10 seconds after injection, read-out: blood level) came out at 27 µg/mL. In data set [2] (blood, intravenous 6 mg/kg, 3 minutes after injection, read-out: blood level), the concentration at 0.05 h was found to be 2.1 µg/mL. Further, the concentration at 0.5 h in data set [2] (blood, read-out: blood level) was 1.1 µg/mL; in data set [2] (heart, read-out: heart level), 5100 ng/g. Besides, the concentration at 10 min in data set [2] (heart, intravenous 6 mg/kg, 10 minutes after injection) turned out to be 5500 ng/g.
Consider `C[N+](C)(CCO)CCOc1c(Br)cc(N)cc1Br` [Example 7], for which the minimal effective dose in data set [1] (setting [3]) came out at 1 mg/kg. Further, in data set [1] (setting [4]), the “Duration” value turned out to be 25 min.
`C[N+](C)(CCOc1c(Br)cc(N)cc1Br)CC(=O)c1ccc(Cl)c(Cl)c1` [Example 8]: the minimal effective dose in data set [1] (setting [3]) was found to be 16 mg/kg. Further, the “Duration” value in data set [1] (dog, intravenous, at conversion dose 16 mg/kg) amounted to 10 min.
Consider `C[N+](C)(CCOc1c(Br)cc(N)cc1Br)CCc1ccccc1` [Example 9], for which the minimal effective dose in data set [1] (setting [3]) amounted to 2 mg/kg. For the same compound, in data set [1] (setting [5]), the “Duration” value was 3.5 min.
Take `C[N+](C)(CC=CCl)CCOc1c(Br)cc(N)cc1Br` [Example 10]: in data set [1] (setting [3]), the minimal effective dose came to 1 mg/kg. For the same compound, the “Duration” value in data set [1] (setting [4]) came to 3 min.
With `C[N+](C)(CCOc1c(Br)cc(N)cc1Br)Cc1ccccc1` [Example 11], the minimal effective dose in data set [1] (setting [3]) was 1 mg/kg. Besides, the “Duration” value in data set [1] (setting [4]) was determined as 8.5 min.
As for `C[N+](C)(CCOc1c(Br)cc(N)cc1Br)Cc1ccc(Cl)cc1` [Example 12], the minimal effective dose in data set [1] (setting [3]) came out at 1 mg/kg. Moreover, in data set [1] (setting [4]), the “Duration” value amounted to 9.5 min.
Turning to `C[N+](C)(CCOc1c(Br)cc(N)cc1Br)Cc1ccc(Cl)cc1Cl` [Example 13], the minimal effective dose in data set [1] (setting [3]) stood at 0.5 mg/kg. In data set [1] (setting [6]), the “Duration” value came out at 4 min.
`C[N+](C)(CCOc1c(Br)cc(N)cc1Br)Cc1ccc(Cl)c(Cl)c1` [Example 14]: the minimal effective dose in data set [1] (setting [3]) worked out at 2 mg/kg. The “Duration” value in data set [1] (setting [5]) amounted to 14 min.
Consider `C=C(C)C[N+](C)(C)CCOc1c(Cl)cc(N)cc1Cl.[Cl-]` [Example 15, [2-(4-amino-2,6-dichlorophenoxy)ethyl]dimethyl(2-methylallyl)-ammonium chloride], for which the minimal effective dose in data set [1] (setting [3]) was 0.5 mg/kg. Besides, the “Duration” value in data set [1] (setting [6]) amounted to 4.5 min.
As to `C=CC[N+](CC)(CC)CCOc1c(Br)cc(N)cc1Br.[Br-]` [Example 16, [2-(4-amino-2,6-dibromophenoxy)ethyl]diethyl(allyl)ammonium bromide], the minimal effective dose in data set [1] (setting [3]) worked out at 2 mg/kg. The “Duration” value in data set [1] (setting [5]) was 6.5 min.
`C=CC[N+](C)(C)CCCOc1c(Br)cc(N)cc1Br.[Br-]` [Example 17, [3-(4-amino-2,6-dibromophenoxy)propyl]dimethyl(allyl)ammonium bromide]: the minimal effective dose in data set [1] (setting [3]) is 1 mg/kg. In data set [1] (setting [4]), the “Duration” value was 6 min.
`C[N+](C)(CC#N)CCOc1c(Br)cc(N)cc1Br.O=S(=O)([O-])c1ccccc1` [Example 18, [2-(4-amino-2,6-dibromophenoxy)ethyl]dimethyl(2-nitriloethyl)-ammonium benzenesulfonate]: the minimal effective dose in data set [1] is 1 mg/kg. Also, in data set [1] (setting [4]), the “Duration” value is 4 min.
Consider `C=CC[N+](C)(C)CCOc1c(Br)cc(N)cc1Br.CS(=O)(=O)[O-]` [Example 19, [2-(4-amino-2,6-dibromophenoxy)-ethyl]dimethyl(allyl)ammonium methanesulfonate], for which the minimal effective dose in data set [1] (setting [3]) stood at 1 mg/kg. The “Duration” value in data set [1] (setting [4]) came to 17.5 min; in data set [1] (setting [5]), 39.0 min.
As to `Nc1cc(Br)c(OCC[N+]23CCC(CC2)CC3)c(Br)c1` [Example 20, [2-(4-amino-2,6-dibromophenoxy)ethyl] quinuclidinium bromide], the minimal effective dose in data set [1] is 0.5 mg/kg. Moreover, in data set [1] (setting [6]), the “Duration” value is 1 min.
Take `Br.C=CC[N+]1(CCOc2c(Br)cc(N)cc2Br)CCCC1.[Br-]` [Example 21, 1-[2-(4-amino-2,6dibromophenoxy)ethyl]-1-allyl pyrrolidinium bromide hydrobromide]: the minimal effective dose in data set [1] (setting [3]) was 2 mg/kg. Further, the “Duration” value in data set [1] (setting [5]) was 1.5 min.
Take `Br.C=CC[N+]1(CCOc2c(Br)cc(N)cc2Br)CCCCC1.[Br-]` [Example 22, 1-[2-(4-amino-2,6-dibromophenoxy)ethyl]-1-allyl piperidinium bromide hydrobromide]: the minimal effective dose in data set [1] (setting [3]) came out at 1 mg/kg. In data set [1] (setting [4]), the “Duration” value was 6.5 min.
On to `C=CC[N+]1(CCOc2c(Br)cc(N)cc2Br)CCCCCC1` [Example 23, [2-(4-amino-2,6-dibromophenoxy)ethyl]-1-allylhexahydroazepinium bromide], for which the minimal effective dose in data set [1] (setting [3]) was 0.5 mg/kg. The “Duration” value turned out to be 3.3 min in data set [1] (setting [6]) and 7.5 min in data set [1] (setting [4]).
Turning to `Cc1ccc[n+](CCOc2c(Br)cc(N)cc2Br)c1.[Br-]` [Example 24, 1-[2-(4-amino-2,6-dibromo-phenoxy)ethyl]-3-picolinium bromide], the minimal effective dose in data set [1] (setting [3]) was 0.5 mg/kg. Besides, in data set [1] (setting [6]), the “Duration” value was found to be 38 min.
`C=CC[N+](C)(C)CCCCOc1c(Br)cc(N)cc1Br.[Br-]` [Example 25, [4-(4-amino-2,6-dibromophenoxy)-butyl]dimethyl(allyl) ammonium bromide]: the minimal effective dose in data set [1] (setting [3]) came to 2 mg/kg. For the same compound, the “Duration” value in data set [1] (setting [5]) stood at 26 min.
